Values quoted from earlier work as cited in US20030124640A1, “Predictive assay for the outcome of IVF” (Royal Free Hospital School of Medicine, priority 1996, published 2003).
Read-outs that look alike come from different tables or passages of the source.

What was measured:
ovarian 11β-HSD = settings: for Inhibition of 11β-HSD activity: cultured human granulosa-lutein cells; for Acute effect on ovarian 11β-HSD activity: in vitro
renal 11β-HSD = target: T1, renal 11β-HSD (Homo sapiens, UniProt P80365)
T1 sequence (P80365 1-405): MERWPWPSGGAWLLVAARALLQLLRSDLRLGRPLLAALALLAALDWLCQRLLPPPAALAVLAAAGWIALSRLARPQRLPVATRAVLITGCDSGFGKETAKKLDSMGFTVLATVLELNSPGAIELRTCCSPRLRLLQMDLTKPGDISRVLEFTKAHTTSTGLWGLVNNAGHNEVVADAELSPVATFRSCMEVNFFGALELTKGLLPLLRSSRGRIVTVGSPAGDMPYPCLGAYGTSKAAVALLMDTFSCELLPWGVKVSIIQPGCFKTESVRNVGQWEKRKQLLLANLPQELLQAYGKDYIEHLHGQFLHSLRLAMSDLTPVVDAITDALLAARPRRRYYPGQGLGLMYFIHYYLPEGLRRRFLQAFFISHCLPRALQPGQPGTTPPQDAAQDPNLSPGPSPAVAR

11β-HSD2 = target: T2, 11β-HSD2 (Homo sapiens, UniProt P80365); settings: renal isoform 11β-HSD2, NAD+ dependent 11β-dehydrogenase
T2 sequence (P80365 1-405): T1 sequence (P80365 1-405)

[1] = hepatic isoform 11βHSD1, NADP(H) cofactor, read-out: Km for 11β-dehydrogenase activity

Row | SMILES | Km (11β-HSD2) [µM] | Km (11βHSD1; [1]) [µM] | Inhibition of 11β-HSD activity (ovarian 11β-HSD) | Acute effect on ovarian 11β-HSD activity (ovarian 11β-HSD) | Acute effect on renal 11β-HSD activity (renal 11β-HSD) | further results
1 | C[C@]12CCC(=O)C=C1CC[C@@H]1[C@@H]2C(=O)C[C@@]2(C)[C@H]1CC[C@]2(O)C(=O)CO [cortisone] | – | – | – | – | – | Km (11βHSD1; hepatic isoform 11βHSD1, cortisone to cortisol, read-out: Km for cortisone (11-ketosteroid reductase activity)): 0.14 to 0.272 µM
2 | C[C@]12CC[C@@H]3c4ccc(O)cc4CC[C@H]3[C@@H]1CC[C@@H]2O [oestradiol] | – | – | – | – | – | Effect on hepatic 11β-HSD activity in vivo (hepatic 11β-HSD): inhibits
3 | CC(=O)[C@H]1CC[C@H]2[C@@H]3CC=C4C[C@@H](O)CC[C@]4(C)[C@H]3CC[C@]12C [pregnenolone] | – | – | can inhibit | inhibit | inhibit | –
4 | CC(=O)[C@H]1CC[C@H]2[C@@H]3CCC4=CC(=O)CC[C@]4(C)[C@H]3CC[C@]12C [progesterone] | – | – | can inhibit | inhibit | inhibit | –

Further lines, with some results ahead:

Row | Km (11β-HSD2) [µM] | Km (11βHSD1; [1]) [µM] | SMILES | Inhibition of 11β-HSD activity (ovarian 11β-HSD) | Acute effect on ovarian 11β-HSD activity (ovarian 11β-HSD) | Acute effect on renal 11β-HSD activity (renal 11β-HSD) | further results
5 | 0.026 | ~2 | C[C@]12C[C@H](O)[C@H]3[C@@H](CCC4=CC(=O)CC[C@@]43C)[C@@H]1CC[C@@H]2C(=O)CO [corticosterone] | – | – | – | –
6 | 0.04 | 17 | C[C@]12CCC(=O)C=C1CC[C@@H]1[C@@H]2[C@@H](O)C[C@@]2(C)[C@H]1CC[C@]2(O)C(=O)CO [cortisol] | – | – | – | –
